The results in this text go back to ChEMBL document CHEMBL5291721, “A preclinical secondary pharmacology resource illuminates target-adverse drug reaction associations of marketed drugs” (Nat Commun, 2023).

As usually defined, the AC50 is the concentration at which the activity in the assay is half-maximal.

For one assay, the target named is Prothrombin (Homo sapiens, UniProt P00734). It is filed as functional.
For assay [1], the target named is Delta-type opioid receptor (Homo sapiens, UniProt P41143).
Sequence of Delta-type opioid receptor (P41143 whole entry): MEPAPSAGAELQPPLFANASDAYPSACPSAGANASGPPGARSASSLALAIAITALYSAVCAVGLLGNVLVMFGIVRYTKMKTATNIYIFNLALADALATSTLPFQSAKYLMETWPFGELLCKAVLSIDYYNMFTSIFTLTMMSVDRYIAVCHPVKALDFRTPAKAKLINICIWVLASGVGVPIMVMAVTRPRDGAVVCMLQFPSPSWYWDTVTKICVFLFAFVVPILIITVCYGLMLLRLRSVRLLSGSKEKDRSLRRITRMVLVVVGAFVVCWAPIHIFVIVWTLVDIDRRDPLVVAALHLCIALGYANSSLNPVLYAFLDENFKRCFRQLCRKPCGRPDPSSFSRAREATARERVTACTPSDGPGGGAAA
Assay [2] deals with Voltage-gated inwardly rectifying potassium channel KCNH2 (Homo sapiens, UniProt Q12809). The format is functional.
Sequence of Voltage-gated inwardly rectifying potassium channel KCNH2 (Q12809 whole entry): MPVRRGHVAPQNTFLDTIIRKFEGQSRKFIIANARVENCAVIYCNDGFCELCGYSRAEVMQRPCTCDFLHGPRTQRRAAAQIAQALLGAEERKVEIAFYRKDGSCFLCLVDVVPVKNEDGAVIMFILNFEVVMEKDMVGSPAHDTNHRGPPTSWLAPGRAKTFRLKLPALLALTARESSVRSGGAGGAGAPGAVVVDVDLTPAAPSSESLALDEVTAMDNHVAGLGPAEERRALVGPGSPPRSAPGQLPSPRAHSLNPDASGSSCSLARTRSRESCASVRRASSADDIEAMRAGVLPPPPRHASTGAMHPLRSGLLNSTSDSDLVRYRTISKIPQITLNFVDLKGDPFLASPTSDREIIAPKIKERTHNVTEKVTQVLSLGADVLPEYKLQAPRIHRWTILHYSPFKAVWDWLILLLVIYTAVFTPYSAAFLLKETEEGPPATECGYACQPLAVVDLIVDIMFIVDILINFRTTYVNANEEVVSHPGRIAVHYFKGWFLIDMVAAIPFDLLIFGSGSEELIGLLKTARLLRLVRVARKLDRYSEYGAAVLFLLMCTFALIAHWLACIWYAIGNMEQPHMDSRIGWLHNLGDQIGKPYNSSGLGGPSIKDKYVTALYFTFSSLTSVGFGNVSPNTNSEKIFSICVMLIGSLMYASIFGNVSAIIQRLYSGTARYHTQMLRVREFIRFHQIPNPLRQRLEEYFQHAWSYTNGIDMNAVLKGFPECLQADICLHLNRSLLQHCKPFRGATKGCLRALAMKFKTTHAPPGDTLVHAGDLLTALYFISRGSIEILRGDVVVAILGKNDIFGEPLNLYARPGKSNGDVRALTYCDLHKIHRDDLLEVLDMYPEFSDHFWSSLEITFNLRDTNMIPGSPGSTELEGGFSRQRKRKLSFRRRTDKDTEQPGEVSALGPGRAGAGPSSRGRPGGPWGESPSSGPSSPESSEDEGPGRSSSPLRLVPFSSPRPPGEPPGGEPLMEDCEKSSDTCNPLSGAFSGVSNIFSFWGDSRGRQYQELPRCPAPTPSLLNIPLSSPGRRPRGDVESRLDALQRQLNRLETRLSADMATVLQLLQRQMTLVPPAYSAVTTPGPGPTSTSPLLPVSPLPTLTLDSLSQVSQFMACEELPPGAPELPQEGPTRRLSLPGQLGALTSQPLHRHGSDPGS
For assay [3], the target named is T1, Prostaglandin G/H synthase 1 (Rattus norvegicus, UniProt Q63921).
T1 sequence (Q63921 whole entry): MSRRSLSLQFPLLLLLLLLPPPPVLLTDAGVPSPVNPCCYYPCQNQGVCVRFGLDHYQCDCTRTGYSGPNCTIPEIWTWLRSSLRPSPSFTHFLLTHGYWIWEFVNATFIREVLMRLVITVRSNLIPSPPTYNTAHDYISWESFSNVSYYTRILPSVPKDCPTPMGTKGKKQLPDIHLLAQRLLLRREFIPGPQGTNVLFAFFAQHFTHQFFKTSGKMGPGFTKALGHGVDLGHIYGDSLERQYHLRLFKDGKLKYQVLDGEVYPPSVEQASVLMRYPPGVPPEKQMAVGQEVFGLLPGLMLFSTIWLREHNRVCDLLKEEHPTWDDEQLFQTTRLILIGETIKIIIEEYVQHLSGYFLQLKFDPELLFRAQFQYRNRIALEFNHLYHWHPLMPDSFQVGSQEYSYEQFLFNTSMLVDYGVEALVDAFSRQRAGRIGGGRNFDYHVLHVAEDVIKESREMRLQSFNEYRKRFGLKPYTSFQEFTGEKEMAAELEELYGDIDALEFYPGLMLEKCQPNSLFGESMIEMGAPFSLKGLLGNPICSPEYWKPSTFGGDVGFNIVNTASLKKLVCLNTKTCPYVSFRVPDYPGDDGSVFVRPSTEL
It is filed as functional.

Assay [4] deals with T2, Amine oxidase [flavin-containing] A (Homo sapiens, UniProt P21397).
T2 sequence (P21397 whole entry): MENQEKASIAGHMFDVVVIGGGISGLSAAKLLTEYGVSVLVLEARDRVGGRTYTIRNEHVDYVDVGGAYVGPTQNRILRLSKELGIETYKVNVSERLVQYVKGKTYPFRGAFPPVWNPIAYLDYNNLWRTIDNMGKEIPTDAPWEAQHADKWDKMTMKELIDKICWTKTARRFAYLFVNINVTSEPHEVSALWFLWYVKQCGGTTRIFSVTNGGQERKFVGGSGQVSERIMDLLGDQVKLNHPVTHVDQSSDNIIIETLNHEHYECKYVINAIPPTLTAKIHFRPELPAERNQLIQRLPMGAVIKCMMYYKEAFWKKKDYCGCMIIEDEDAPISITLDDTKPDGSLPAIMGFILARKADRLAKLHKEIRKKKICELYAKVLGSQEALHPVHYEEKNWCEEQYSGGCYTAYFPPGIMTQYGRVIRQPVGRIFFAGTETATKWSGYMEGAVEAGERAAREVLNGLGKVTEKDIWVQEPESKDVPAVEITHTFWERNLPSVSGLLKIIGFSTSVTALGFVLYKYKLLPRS
The format is functional.

In assay [5] the target is T3, Muscarinic acetylcholine receptor M2 (Homo sapiens, UniProt P08172).
T3 sequence (P08172 whole entry): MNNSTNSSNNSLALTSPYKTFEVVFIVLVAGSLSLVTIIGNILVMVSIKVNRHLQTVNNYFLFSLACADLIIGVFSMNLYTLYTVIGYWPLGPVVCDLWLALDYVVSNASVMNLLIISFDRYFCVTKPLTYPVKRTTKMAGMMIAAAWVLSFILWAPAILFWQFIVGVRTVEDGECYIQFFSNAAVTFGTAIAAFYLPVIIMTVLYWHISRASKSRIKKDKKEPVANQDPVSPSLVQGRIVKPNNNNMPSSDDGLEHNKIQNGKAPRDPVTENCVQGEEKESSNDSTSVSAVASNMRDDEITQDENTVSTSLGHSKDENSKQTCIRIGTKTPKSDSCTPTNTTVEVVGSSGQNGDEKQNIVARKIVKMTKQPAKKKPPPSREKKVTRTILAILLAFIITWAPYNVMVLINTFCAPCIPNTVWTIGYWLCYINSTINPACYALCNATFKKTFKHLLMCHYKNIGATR

The target of the next assay is Mu-type opioid receptor (Homo sapiens, UniProt P35372).
Sequence of Mu-type opioid receptor (P35372 whole entry): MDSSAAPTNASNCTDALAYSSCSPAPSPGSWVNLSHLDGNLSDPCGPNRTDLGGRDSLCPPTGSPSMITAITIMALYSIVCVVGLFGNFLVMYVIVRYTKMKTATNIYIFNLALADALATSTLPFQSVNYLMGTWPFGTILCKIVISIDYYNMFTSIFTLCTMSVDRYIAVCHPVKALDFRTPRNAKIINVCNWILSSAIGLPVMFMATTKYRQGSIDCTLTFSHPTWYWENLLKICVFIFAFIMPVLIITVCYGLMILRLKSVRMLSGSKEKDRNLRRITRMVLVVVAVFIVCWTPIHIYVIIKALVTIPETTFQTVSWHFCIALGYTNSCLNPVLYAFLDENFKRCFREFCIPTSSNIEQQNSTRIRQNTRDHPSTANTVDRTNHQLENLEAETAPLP
Assay [6] addresses T4, Alpha-2C adrenergic receptor (Homo sapiens, UniProt P18825).
T4 sequence (P18825 whole entry): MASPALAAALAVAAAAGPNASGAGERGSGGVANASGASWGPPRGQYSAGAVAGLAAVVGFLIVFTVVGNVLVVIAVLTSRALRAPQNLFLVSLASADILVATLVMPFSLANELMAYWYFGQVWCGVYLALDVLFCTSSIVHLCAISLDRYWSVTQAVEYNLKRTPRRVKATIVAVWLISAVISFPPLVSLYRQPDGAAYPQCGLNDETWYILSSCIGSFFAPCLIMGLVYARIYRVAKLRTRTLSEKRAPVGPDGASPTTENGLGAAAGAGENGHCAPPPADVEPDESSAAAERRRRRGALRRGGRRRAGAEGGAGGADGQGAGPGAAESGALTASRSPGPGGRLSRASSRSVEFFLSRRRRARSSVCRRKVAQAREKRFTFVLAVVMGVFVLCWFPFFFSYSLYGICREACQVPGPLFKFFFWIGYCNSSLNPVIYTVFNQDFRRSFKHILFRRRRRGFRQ
The format is functional.

In assay [7] the target is Prostaglandin G/H synthase 1 (Homo sapiens, UniProt P23219). The format is functional.
Sequence of Prostaglandin G/H synthase 1 (Homo sapiens, UniProt P23219) (P23219 whole entry): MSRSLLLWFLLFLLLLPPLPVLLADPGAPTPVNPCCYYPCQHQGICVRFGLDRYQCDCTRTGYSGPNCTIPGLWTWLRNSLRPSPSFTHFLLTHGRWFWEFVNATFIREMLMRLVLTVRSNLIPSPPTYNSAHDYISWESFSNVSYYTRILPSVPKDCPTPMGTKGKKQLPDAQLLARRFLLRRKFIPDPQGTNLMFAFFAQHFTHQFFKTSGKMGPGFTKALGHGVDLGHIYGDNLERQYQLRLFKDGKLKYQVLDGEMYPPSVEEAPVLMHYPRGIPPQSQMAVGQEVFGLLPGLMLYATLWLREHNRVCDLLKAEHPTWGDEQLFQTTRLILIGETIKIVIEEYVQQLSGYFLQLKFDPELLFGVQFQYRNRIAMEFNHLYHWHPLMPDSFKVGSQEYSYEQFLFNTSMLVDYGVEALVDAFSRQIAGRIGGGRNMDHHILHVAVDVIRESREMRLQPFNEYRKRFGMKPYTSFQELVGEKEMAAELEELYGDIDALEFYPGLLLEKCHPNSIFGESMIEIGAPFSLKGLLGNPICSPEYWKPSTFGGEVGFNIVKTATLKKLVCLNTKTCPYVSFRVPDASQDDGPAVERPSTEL
Assay [8] has as its target Sodium-dependent dopamine transporter (Homo sapiens, UniProt Q01959).
Assay [9] has as its target Gamma-aminobutyric acid receptor subunit alpha-1 (Rattus norvegicus, UniProt P62813).
Assay [10] concerns the target T5, Neuropeptide Y receptor type 1 (Homo sapiens, UniProt P25929).
T5 sequence (P25929 whole entry): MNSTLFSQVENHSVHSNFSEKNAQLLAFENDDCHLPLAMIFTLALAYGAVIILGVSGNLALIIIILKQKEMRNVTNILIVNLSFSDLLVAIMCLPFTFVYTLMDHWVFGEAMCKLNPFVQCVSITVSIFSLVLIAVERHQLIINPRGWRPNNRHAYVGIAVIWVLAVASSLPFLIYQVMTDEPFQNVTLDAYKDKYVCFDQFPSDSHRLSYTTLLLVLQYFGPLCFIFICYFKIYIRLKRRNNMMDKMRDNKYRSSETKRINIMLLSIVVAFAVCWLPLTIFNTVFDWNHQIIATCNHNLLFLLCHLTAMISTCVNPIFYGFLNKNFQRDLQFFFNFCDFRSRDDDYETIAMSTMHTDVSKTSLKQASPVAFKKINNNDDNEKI
The conditions noted are these: read-out: AC50.
Also: assay procedure not described here.

Sequence of Gamma-aminobutyric acid receptor subunit alpha-1 (P62813 whole entry): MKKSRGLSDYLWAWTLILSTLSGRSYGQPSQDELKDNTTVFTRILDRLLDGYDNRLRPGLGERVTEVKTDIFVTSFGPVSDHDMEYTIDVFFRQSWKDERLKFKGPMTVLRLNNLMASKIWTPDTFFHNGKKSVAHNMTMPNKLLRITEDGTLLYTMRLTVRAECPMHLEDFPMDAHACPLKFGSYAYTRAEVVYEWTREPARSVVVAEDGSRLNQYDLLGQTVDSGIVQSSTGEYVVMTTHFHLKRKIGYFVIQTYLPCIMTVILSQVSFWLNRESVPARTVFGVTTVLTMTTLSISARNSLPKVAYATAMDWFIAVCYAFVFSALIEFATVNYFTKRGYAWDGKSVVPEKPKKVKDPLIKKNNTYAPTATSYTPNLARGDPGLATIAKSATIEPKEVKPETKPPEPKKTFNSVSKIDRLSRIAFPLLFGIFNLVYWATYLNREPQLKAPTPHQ
Sequence of Sodium-dependent dopamine transporter (Q01959 whole entry): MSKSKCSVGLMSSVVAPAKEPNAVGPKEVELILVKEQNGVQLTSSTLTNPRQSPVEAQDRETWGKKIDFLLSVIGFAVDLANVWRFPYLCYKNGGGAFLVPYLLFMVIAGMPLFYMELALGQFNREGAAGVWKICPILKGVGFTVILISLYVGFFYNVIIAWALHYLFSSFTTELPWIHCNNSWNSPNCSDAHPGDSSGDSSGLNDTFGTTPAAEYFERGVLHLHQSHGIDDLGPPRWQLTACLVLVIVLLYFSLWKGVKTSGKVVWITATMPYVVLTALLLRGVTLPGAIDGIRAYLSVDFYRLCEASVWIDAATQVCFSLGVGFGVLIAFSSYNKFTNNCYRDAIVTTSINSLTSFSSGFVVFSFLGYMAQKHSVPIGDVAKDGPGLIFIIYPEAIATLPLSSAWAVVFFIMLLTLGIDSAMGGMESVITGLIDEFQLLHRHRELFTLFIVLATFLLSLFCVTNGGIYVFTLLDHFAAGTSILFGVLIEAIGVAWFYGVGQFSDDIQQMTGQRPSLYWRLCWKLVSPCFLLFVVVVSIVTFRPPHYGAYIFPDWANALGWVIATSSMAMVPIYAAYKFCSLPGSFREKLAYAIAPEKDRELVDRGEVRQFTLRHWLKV

Turning to `COc1cc2nccc(Oc3ccc(NC(=O)C4(C(=O)Nc5ccc(F)cc5)CC4)cc3)c2cc1OC` [CABOZANTINIB], the concentration at half-maximal activity (AC50) at Prothrombin is greater than 30 µM; in assay [1], greater than 30 µM; in assay [2], 8.3 µM; in assay [3] it was greater than 30 µM; in [4], 25.4 µM; in assay [5], 9.32 µM. In addition, the AC50 was greater than 30 µM at Mu-type opioid receptor, 26 µM in assay [6], greater than 30 µM in [7] and greater than 30 µM in assay [8].
With `C#C[C@]1(O)CC[C@H]2[C@@H]3CCC4=CC(=O)CC[C@@H]4[C@H]3C(=C)C[C@@]21CC` [ETONOGESTREL], the AC50 (in assay [9]; at Prothrombin; in assay [1]; in [2]; in assay [4]; in assay [5]) was greater than 30 µM in each case. In addition, the AC50 at Mu-type opioid receptor was 10.5 µM; in assay [6], greater than 30 µM; in assay [7], greater than 30 µM; in [8] it was greater than 30 µM.
`CN(CC1(C)CCCO1)S(=O)(=O)c1ccc(Cl)c(S(N)(=O)=O)c1` (centres undefined) [MEFRUSIDE]: the AC50 (in assay [9]; on Prothrombin; in assay [1]; in assay [2]; in [4]; in assay [5]) was greater than 30 µM each time. In addition, the AC50 (on Mu-type opioid receptor; in assay [6]; in [7]; in assay [8]) was greater than 30 µM each time.
`CC(=O)O[C@]1(C(C)=O)CC[C@H]2[C@@H]3C=C(C)C4=CC(=O)CC[C@@H]4[C@H]3CC[C@@]21C` [NOMEGESTROL ACETATE]: the half-maximal activity concentration (AC50) (in assay [9]; on Prothrombin; in [1]; in [2]; in assay [3]; in assay [4]) was greater than 30 µM each time. Besides, the concentration at half-maximal activity (AC50) (in [5]; at Mu-type opioid receptor; in [6]; in [7]; in [8]) was greater than 30 µM throughout.
As to `Nc1ccc(C(=O)Oc2ccccc2)c(O)c1` [PHENYL AMINOSALICYLATE], the half-maximal activity concentration (AC50) (at Prothrombin; in assay [2]; in assay [4]; in [5]; on Mu-type opioid receptor; in assay [7]) was greater than 30 µM in each case. Besides, the AC50 in assay [8] was 0.235 µM.
Take `CN1CCC(=C2c3ccccc3Sc3ccccc32)CC1` [PIMETHIXENE]: the concentration at half-maximal activity (AC50) on Prothrombin is greater than 30 µM; in assay [2], 3.9 µM; in assay [4], greater than 30 µM; in [5], 0.0071 µM; at Mu-type opioid receptor, 8.56 µM; in assay [7] it was greater than 30 µM. This compound also yielded an AC50 in assay [8] of 11.2 µM.
Take `[H]/N=C(\N/C(=N/[H])Nc1ccc(Cl)cc1)NC(C)C` [PROGUANIL]: the concentration at half-maximal activity (AC50) is greater than 30 µM at Prothrombin; 19 µM in [2]; greater than 30 µM in assay [4]; greater than 30 µM in assay [5]; greater than 30 µM on Mu-type opioid receptor; greater than 30 µM in assay [7]. Further, the activity in [8] was half-maximal at 12.5 µM (AC50).
As to `CC(CN1CC(=O)NC(=O)C1)N1CC(=O)NC(=O)C1` (centres undefined) [RAZOXANE], the half-maximal activity concentration (AC50) at Prothrombin was greater than 30 µM; in [2], greater than 30 µM; in assay [4], greater than 30 µM; in assay [5], greater than 30 µM; on Mu-type opioid receptor, greater than 30 µM; in assay [7], 20.4 µM. For the same compound, the half-maximal activity concentration (AC50) in assay [8] is greater than 30 µM.
As for `N[C@@H](CO)C(=O)O` [SERINE], the AC50 is greater than 30 µM on Prothrombin; greater than 30 µM in assay [2]; greater than 10 µM in [4]; greater than 30 µM in assay [5]; greater than 30 µM on Mu-type opioid receptor; greater than 30 µM in assay [7]. For the same compound, in [8], the AC50 is greater than 30 µM.
As to `OC[C@@H](O)[C@@H](O)[C@H](O)[C@@H](O)CO` [SORBITOL], the AC50 (on Prothrombin; in assay [2]; in assay [4]; in assay [5]; on Mu-type opioid receptor; in assay [7]) was greater than 30 µM each time. Besides, the AC50 in assay [8] was greater than 30 µM.
For the compound `CC(C)OC(=O)CCC/C=C\C[C@@H]1[C@@H](/C=C/C(F)(F)COc2ccccc2)[C@H](O)C[C@@H]1O` [TAFLUPROST], the half-maximal activity concentration (AC50) (at Prothrombin; in [2]; in [4]; in [5]; at Mu-type opioid receptor; in assay [7]) was greater than 30 µM in each case. Also, the AC50 in assay [8] is greater than 30 µM.
As to `C[C@]1(Cn2ccnn2)[C@H](C(=O)O)N2C(=O)C[C@H]2S1(=O)=O` [TAZOBACTAM], the AC50 (at Prothrombin; in assay [2]; in assay [4]; in assay [5]; on Mu-type opioid receptor; in assay [7]) was greater than 30 µM throughout. Also, the AC50 in [8] was greater than 30 µM.
With `CC[C@H]1OC(=O)[C@H](C)C(=O)[C@H](C)[C@@H](O[C@@H]2O[C@H](C)C[C@H](N(C)C)[C@H]2O)[C@](C)(OC)C[C@@H](C)C(=O)[C@H](C)[C@H]2N(CCCCn3cnc(-c4cccnc4)c3)C(=O)O[C@]12C` [TELITHROMYCIN], the AC50 (on Prothrombin; in [2]; in assay [4]; in [5]; at Mu-type opioid receptor; in [7]) was greater than 30 µM each time. In assay [8], this compound registered a half-maximal activity concentration (AC50) greater than 30 µM.
`COc1cc2nc(N3CCN(C(=O)C4CCCO4)CC3)nc(N)c2cc1OC` (centres undefined) [TERAZOSIN]: the AC50 is greater than 10 µM in assay [9]; greater than 10 µM at Prothrombin; greater than 30 µM in assay [1]; greater than 30 µM in assay [3]; greater than 30 µM in assay [4]; greater than 30 µM in [5]. In addition, the AC50 (on Mu-type opioid receptor; in [10]; in assay [7]; in assay [8]) was greater than 30 µM in each case.
